Experimental data taken from ChEMBL document CHEMBL1201862, “PubChem BioAssay data set” (2004).
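Five concentrations, 48 hours, 96-well plates. The concentration for 50% growth inhibition is given as GI50.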 Calls of active or inactive are those of the source. Rule as the data show it: active = GI50 up to about 1.1 µM and inactive = higher.

Legend:
Experiment in all cases: NCI tumour cell line growth inhibition, 48 h
HCT-15 = system: HCT-15
IGROV-1 = system: IGROV-1
SF-268 = system: SF-268
HOP-62 = system: HOP-62
NCI-H522 = system: NCI-H522
SN12C = system: SN12C
HOP-92 = system: HOP-92
DU-145 = system: DU-145
UO-31 = system: UO-31
COLO 205 = system: COLO 205
OVCAR-3 = system: OVCAR-3
SK-OV-3 = system: SK-OV-3
HCC 2998 = system: HCC 2998
BT-549 = system: BT-549
MOLT-4 = system: MOLT-4
Malme-3M = system: Malme-3M
NCI-H226 = system: NCI-H226
CAKI-1 = system: CAKI-1

Structure (SMILES) | GI50 (HCT-15) [µM] | GI50 (IGROV-1) | GI50 (SF-268) | GI50 (HOP-62) | GI50 (NCI-H522) | GI50 (SN12C) | GI50 (HOP-92) | GI50 (DU-145) | GI50 (UO-31) | GI50 (COLO 205) | GI50 (OVCAR-3) | GI50 (SK-OV-3) | GI50 (HCC 2998) | GI50 (BT-549) | GI50 (MOLT-4) | GI50 (Malme-3M) | GI50 (NCI-H226) | GI50 (CAKI-1)
CS(=O)(=O)OCCCSCCSCCCOS(C)(=O)=O | > 100 | > 100 µM (inactive) | > 100 µM (inactive) | > 100 µM (inactive) | > 100 µM (inactive) | > 100 µM (inactive) | 40.2 µM (inactive) | > 100 µM (inactive) | > 100 µM (inactive) | > 100 µM (inactive) | > 100 µM (inactive) | > 100 µM (inactive) | > 100 µM (inactive) | > 100 µM (inactive) | > 100 µM (inactive) | – | – | –
COc1ccc(/C=C(\C#N)c2nc3ccccc3c(=O)[nH]2)cc1 | 54.5 | 30.3 µM (inactive) | 13.7 µM (inactive) | 10.5 µM (inactive) | 10.6 µM (inactive) | 33.6 µM (inactive) | 12.1 µM (inactive) | 23.1 µM (inactive) | 26.5 µM (inactive) | 73.6 µM (inactive) | – | 11.3 µM (inactive) | 49.5 µM (inactive) | 15.5 µM (inactive) | > 100 µM (inactive) | > 100 µM (inactive) | 27 µM (inactive) | 27.8 µM (inactive)
CN(C)C1(N(C)C)Oc2c(c(=O)n(C)c(=O)n2C)C(c2ccccc2Br)C1(F)F (stereo not drawn) | > 100 | – | > 100 µM (inactive) | > 100 µM (inactive) | – | – | > 100 µM (inactive) | > 100 µM (inactive) | > 100 µM (inactive) | > 100 µM (inactive) | > 100 µM (inactive) | > 100 µM (inactive) | > 100 µM (inactive) | > 100 µM (inactive) | > 100 µM (inactive) | – | > 100 µM (inactive) | > 100 µM (inactive)
O=C1C(C(O)(C(F)(F)Cl)C(F)(F)Cl)CCC1C(O)(C(F)(F)Cl)C(F)(F)Cl (stereo not drawn) | 3.91 | 4.98 µM (inactive) | 3.57 µM (inactive) | 5.57 µM (inactive) | 4.45 µM (inactive) | 6.87 µM (inactive) | 2.09 µM (inactive) | 3.81 µM (inactive) | – | 4.17 µM (inactive) | 7.28 µM (inactive) | 5.51 µM (inactive) | 3.42 µM (inactive) | 4.35 µM (inactive) | 5.55 µM (inactive) | 5.47 µM (inactive) | 3.6 µM (inactive) | 3.4 µM (inactive)
Cc1cn(C(=O)NC23CC4CC(CC(C4)C2)C3)c(=O)[nH]c1=O | 25.3 | – | 37.5 µM (inactive) | > 100 µM (inactive) | – | 25.4 µM (inactive) | 51.6 µM (inactive) | > 100 µM (inactive) | 69.5 µM (inactive) | 24 µM (inactive) | 88.3 µM (inactive) | 34.4 µM (inactive) | 50.4 µM (inactive) | 21.8 µM (inactive) | 41.5 µM (inactive) | 44.7 µM (inactive) | 24.9 µM (inactive) | 32.2 µM (inactive)
C=CC[C@H](C)CCC(=O)N1[C@H]2CC3CC[C@@]2(CS1(=O)=O)C3(C)C | 25.5 | > 100 µM (inactive) | 41.7 µM (inactive) | > 100 µM (inactive) | 30.3 µM (inactive) | 85.5 µM (inactive) | > 100 µM (inactive) | > 100 µM (inactive) | 40.7 µM (inactive) | 34.3 µM (inactive) | – | > 100 µM (inactive) | 49.2 µM (inactive) | 78.7 µM (inactive) | 17.3 µM (inactive) | 46.8 µM (inactive) | 51.5 µM (inactive) | 80.4 µM (inactive)
CCSc1s/c(=N/c2ccc(/N=c3\sc(C)c(SC)s3)cc2)sc1-c1ccc(C)cc1 | > 100 | > 100 µM (inactive) | > 100 µM (inactive) | > 100 µM (inactive) | > 100 µM (inactive) | > 100 µM (inactive) | > 100 µM (inactive) | > 100 µM (inactive) | > 100 µM (inactive) | > 100 µM (inactive) | > 100 µM (inactive) | > 100 µM (inactive) | > 100 µM (inactive) | > 100 µM (inactive) | > 100 µM (inactive) | > 100 µM (inactive) | – | > 100 µM (inactive)
Cc1ccc2c(c1C)CC1(Cc3ccc(C)c(C)c3C1=O)C2=O (stereo not drawn) | > 100 | 21.7 µM (inactive) | > 100 µM (inactive) | – | > 100 µM (inactive) | > 100 µM (inactive) | 34 µM (inactive) | > 100 µM (inactive) | > 100 µM (inactive) | > 100 µM (inactive) | > 100 µM (inactive) | – | > 100 µM (inactive) | > 100 µM (inactive) | > 100 µM (inactive) | > 100 µM (inactive) | 52.1 µM (inactive) | 44.2 µM (inactive)
OC1CC2CCCN(CCc3c1[nH]c1ccccc31)C2 (stereo not drawn) | > 100 | – | > 100 µM (inactive) | – | > 100 µM (inactive) | > 100 µM (inactive) | > 100 µM (inactive) | > 100 µM (inactive) | > 100 µM (inactive) | > 100 µM (inactive) | – | > 100 µM (inactive) | > 100 µM (inactive) | 38.3 µM (inactive) | – | > 100 µM (inactive) | > 100 µM (inactive) | > 100 µM (inactive)
